Results on 13 molecules are retold here after ChEMBL document CHEMBL5316266, “Ligand-Based Design on the Dog-Bone-Shaped BIBR1532 Pharmacophoric Features and Synthesis of Novel Analogues as Promising Telomerase Inhibitors with In Vitro and In Vivo Evaluations” (J Med Chem, 2023).

The target of data set [1] is Telomerase reverse transcriptase (Homo sapiens) (UniProt O14746). Briefly: Inhibition of telomerase (unknown origin) by qRT-PCR analysis relative to control. The settings on record: concentration not given here. Also noted: concentration or dose not given beside the values. (In general: Real-time PCR tracks product formation cycle by cycle.)
Telomerase reverse transcriptase (Homo sapiens), sequence (O14746 whole entry): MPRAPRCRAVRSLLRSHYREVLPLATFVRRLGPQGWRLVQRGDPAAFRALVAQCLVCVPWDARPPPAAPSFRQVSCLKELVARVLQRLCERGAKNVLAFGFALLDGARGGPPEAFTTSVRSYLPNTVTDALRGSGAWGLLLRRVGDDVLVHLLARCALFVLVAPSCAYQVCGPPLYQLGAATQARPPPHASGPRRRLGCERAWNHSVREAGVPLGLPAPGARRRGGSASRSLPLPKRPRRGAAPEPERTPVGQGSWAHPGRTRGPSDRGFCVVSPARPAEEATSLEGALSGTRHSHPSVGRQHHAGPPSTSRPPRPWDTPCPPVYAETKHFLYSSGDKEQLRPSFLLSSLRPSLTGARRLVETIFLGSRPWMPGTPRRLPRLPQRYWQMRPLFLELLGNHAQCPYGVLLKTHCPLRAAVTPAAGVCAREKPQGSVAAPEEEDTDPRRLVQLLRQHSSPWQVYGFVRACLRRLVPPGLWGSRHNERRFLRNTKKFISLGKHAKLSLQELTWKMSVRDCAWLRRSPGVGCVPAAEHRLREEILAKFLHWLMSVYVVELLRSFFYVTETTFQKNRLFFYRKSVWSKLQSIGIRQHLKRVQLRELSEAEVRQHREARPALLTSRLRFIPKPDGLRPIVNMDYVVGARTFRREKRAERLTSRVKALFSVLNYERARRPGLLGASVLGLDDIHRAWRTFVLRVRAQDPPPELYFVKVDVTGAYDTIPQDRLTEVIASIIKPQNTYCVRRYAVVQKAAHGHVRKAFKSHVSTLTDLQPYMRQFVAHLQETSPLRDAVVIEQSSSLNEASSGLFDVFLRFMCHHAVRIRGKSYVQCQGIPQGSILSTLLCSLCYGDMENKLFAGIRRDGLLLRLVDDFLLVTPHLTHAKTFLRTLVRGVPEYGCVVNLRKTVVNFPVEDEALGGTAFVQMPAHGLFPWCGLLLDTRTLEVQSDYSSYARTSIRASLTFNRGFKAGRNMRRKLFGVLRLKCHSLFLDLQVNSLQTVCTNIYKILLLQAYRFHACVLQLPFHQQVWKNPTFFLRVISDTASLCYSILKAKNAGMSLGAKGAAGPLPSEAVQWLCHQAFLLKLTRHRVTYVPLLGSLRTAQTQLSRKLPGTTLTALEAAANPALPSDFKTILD
Data set [2] deals with MCF7. Nature of the data set: Cytotoxicity against human MCF7 cells assessed as inhibition of cell growth incubated for 72 hrs by MTT assay. Format: functional, cell-based. Particulars: MCF7, 72 h. Background: Tetrazolium assays rely on reduction of a dye to a coloured formazan, in cell work by metabolically active cells.
The subject of data set [3] is A549. Briefly: Cytotoxicity against human A549 cells assessed as inhibition of cell growth incubated for 72 hrs by MTT assay. Format: functional, cell-based. The settings on record: A549, 72 h.
In data set [4] the test system is MCF7. Briefly: Cell cycle arrest in human MCF7 cells assessed as accumulation of cells at S phase at 3.1 uM incubated for 48 hrs by PI staining based flow cytometry (reference value: 28.71 %). The data set is classed as functional. A general note: A flow cytometer gives signals particle by particle.
In data set [5] the test system is MCF7. Briefly: Induction of apoptosis in human MCF7 cells assessed as total apoptotic cells incubated for 48 hrs by Annexin-V/FITC staining based flow cytometry (reference value: 1.73 %). The data set is classed as functional.
Data set [6] concerns Ehrlich. Nature of the data set: Anticancer activity against mouse solid Ehrlich carcinoma implanted in Swiss albino mouse assessed as reduction in tumor weight at 5 mg/kg administered thrice per week for 2 weeks starting from day 7 post tumor implantation relative to control. The data set is classed as functional. On the set-up: scale not given: the % may be the effect or the level left.

The subject of data set [7] is Ehrlich. Briefly: Anticancer activity against mouse solid Ehrlich carcinoma implanted in Swiss albino mouse assessed as reduction in tumor volume at 5 mg/kg administered thrice per week for 2 weeks starting from day 7 post tumor implantation relative to control. Format: functional. On the set-up: scale not given: the % may be the effect or the level left.
The test system of data set [8] is Ehrlich. Briefly: Anticancer activity against mouse solid Ehrlich carcinoma implanted in Swiss albino mouse assessed as reduction in tumor weight at 5 mg/kg administered thrice per week for 2 weeks starting from day 7 post tumor implantation relative to DOX. Format: functional. On the set-up: scale not given: the % may be the effect or the level left.
Data set [9] concerns Ehrlich. Briefly: Anticancer activity against mouse solid Ehrlich carcinoma implanted in Swiss albino mouse assessed as reduction in tumor volume at 5 mg/kg administered thrice per week for 2 weeks starting from day 7 post tumor implantation relative to DOX. The data set is classed as functional. Also noted: scale not given: the % may be the effect or the level left.
In data set [10] the test system is Ehrlich. Briefly: Anticancer activity against mouse solid Ehrlich carcinoma implanted in Swiss albino mouse assessed as increase in tumor inhibition ratio at 5 mg/kg administered thrice per week for 2 weeks starting from day 7 post tumor implantation relative to control. On the set-up: scale not given: the % may be the effect or the level left. Format: functional.

In data set [11] the test system is Ehrlich. Nature of the data set: Anticancer activity against mouse solid Ehrlich carcinoma cells implanted in Swiss albino mouse assessed as decrease in serum ALT level at 5 mg/kg administered thrice per week for 2 weeks starting from day 7 post tumor implantation by biochemical assay relative to control. Format: functional. Also noted: scale not given: the % may be the effect or the level left.

Data set [12] has as its system Ehrlich. Nature of the data set: Anticancer activity against mouse solid Ehrlich carcinoma cells implanted in Swiss albino mouse assessed as decrease in serum AST level at 5 mg/kg administered thrice per week for 2 weeks starting from day 7 post tumor implantation by biochemical assay relative to control. The data set is classed as functional. On the set-up: scale not given: the % may be the effect or the level left.

The subject of data set [13] is Ehrlich. Briefly: Anticancer activity against mouse solid Ehrlich carcinoma cells implanted in Swiss albino mouse assessed as decrease in serum albumin level at 5 mg/kg administered thrice per week for 2 weeks by biochemical assay tarting from day 7 post tumor implantation by biochemical assay relative to control. Format: functional. Also noted: scale not given: the % may be the effect or the level left.

The test system of data set [14] is Ehrlich. Nature of the data set: Anticancer activity against mouse solid Ehrlich carcinoma cells implanted in Swiss albino mouse assessed as decrease in serum total protein level at 5 mg/kg administered thrice per week for 2 weeks by biochemical assay tarting from day 7 post tumor implantation by biochemical assay relative to control. The data set is classed as functional. On the set-up: scale not given: the % may be the effect or the level left.

Data set [15] relates to Ehrlich. Briefly: Anticancer activity against mouse solid Ehrlich carcinoma cells implanted in Swiss albino mouse assessed as increase in hemoglobin level at 5 mg/kg administered thrice per week for 2 weeks starting from day 7 post tumor implantation by hematological assay (reference value: 4.67 +/- 0.19 g/dl). Format: functional.
Data set [16] deals with Ehrlich. Nature of the data set: Anticancer activity against mouse solid Ehrlich carcinoma cells implanted in Swiss albino mouse assessed as increase in RBC count measured per million cells at 5 mg/kg administered thrice per week for 2 weeks starting from day 7 post tumor implantation by hematological assay (reference value: 2.93 +/- 0.18 10^6/ml). The data set is classed as functional.

In data set [17] the test system is Ehrlich. Nature of the data set: Anticancer activity against mouse solid Ehrlich carcinoma cells implanted in Swiss albino mouse assessed as increase in lymphocyte count at 5 mg/kg administered thrice per week for 2 weeks starting from day 7 post tumor implantation by hematological assay (reference value: 35.57 +/- 8.34 %). The data set is classed as functional.

Data set [18] relates to Ehrlich. Briefly: Anticancer activity against mouse solid Ehrlich carcinoma cells implanted in Swiss albino mouse assessed as increase in monocyte count at 5 mg/kg administered thrice per week for 2 weeks starting from day 7 post tumor implantation by hematological assay (reference value: 7.42 +/- 0.52 %). The data set is classed as functional.
Data set [19] has as its system Ehrlich. Nature of the data set: Anticancer activity against mouse solid Ehrlich carcinoma cells implanted in Swiss albino mouse assessed as necrotic cells at 5 mg/kg administered thrice per week for 2 weeks starting from day 7 post tumor implantation by H and E staining based histopathological analysis relative to control. Format: functional.
A short description of data set [20]: Toxicity in Swiss albino mouse implanted with mouse solid Ehrlich carcinoma assessed as portal tract inflammation in liver at 5 mg/kg administered thrice per week for 2 weeks starting from day 7 post tumor implantation by H and E staining based histopathological analysis. The data set is classed as organism-based. Particulars: in vivo, 336 h.
The nature of data set [21]: Toxicity in Swiss albino mouse implanted with mouse solid Ehrlich carcinoma assessed as confluent necrosis in liver at 5 mg/kg administered thrice per week for 2 weeks starting from day 7 post tumor implantation by H and E staining based histopathological analysis. Format: organism-based. Particulars: in vivo, 336 h.
The nature of data set [22]: Toxicity in Swiss albino mouse implanted with mouse solid Ehrlich carcinoma assessed as hydropic degeneration of hepatocytes at 5 mg/kg administered thrice per week for 2 weeks starting from day 7 post tumor implantation by H and E staining based histopathological analysis. The data set is classed as organism-based. The settings on record: in vivo, 336 h.
Data set [23] is described as follows: Toxicity in Swiss albino mouse implanted with mouse solid Ehrlich carcinoma assessed as tubular injury at 5 mg/kg administered thrice per week for 2 weeks starting from day 7 post tumor implantation by H and E staining based histopathological analysis. The data set is classed as organism-based. Particulars: in vivo, 336 h.
The nature of data set [24]: Toxicity in Swiss albino mouse implanted with mouse solid Ehrlich carcinoma assessed as mesangial expansion at 5 mg/kg administered thrice per week for 2 weeks starting from day 7 post tumor implantation by H and E staining based histopathological analysis. Particulars: in vivo, 336 h. The data set is classed as organism-based.
Data set [25] deals with Ehrlich. Briefly: Anticancer activity against mouse solid Ehrlich carcinoma cells implanted in Swiss albino mouse assessed as increase in neutrophil count at 5 mg/kg administered thrice per week for 2 weeks starting from day 7 post tumor implantation by hematological assay (reference value: 55.43 +/- 8.44 %). Format: functional.

≈ marks a conversion by molar mass, not a printed value. A value given as a limit tells only on which side of the number the result lay.

Usually inhibition stands for the percentage by which the read-out fell short of the control. For orientation: IC50 means the point on the concentration scale where inhibition reaches its midpoint.

With `N#Cc1c(NC(=O)CSc2ccc(-c3ccccc3)nn2)sc2c1CCC2`, in data set [1], the inhibition worked out at 10.8%.
Regarding `Cc1ccc(-c2ccc(SCC(=O)Nc3sc4c(c3C#N)CCC4)nn2)cc1`, the figures for the IC50 in [2] and in data set [3] were 9.47 µg/mL (≈ 23.3 µM) and 17.1 µg/mL (≈ 42 µM), respectively. In addition, the Activity is reported as 42.02% in data set [4]; 42.51% in [5]; 74.34% in data set [6]; 62.12% in data set [7]; 8.48% in data set [8]; 4.3% in data set [9]. The Activity in [10] turned out to be 62.12%; in data set [11], 36.12%; in [12] it was 29.77%; in [13] it was 28.31%; in data set [14] it was 55.54%; in [15], 6.74 g/dL. Also, the Activity is 4.53 10^6/ml in [16]; 39.14% in data set [17]; 9.72% in [18]; above 90% in [19]; “Toxic” in [20]; “Non-Toxic” in data set [21]. Moreover, the Activity result in [22], in data set [23] and in data set [24] was “Toxic” each time.
`N#Cc1c(NC(=O)CSc2ccc(-c3ccc(Br)cc3)nn2)sc2c1CCCC2` showed an inhibition in data set [1] of 10.8%.
Molecule `N#Cc1c(NC(=O)CSc2ccc(-c3ccc(F)cc3)nn2)sc2c1CCCC2` came in with an inhibition in data set [1] of 10.8%.
In turn, `COc1ccc(-c2ccc(SCC(=O)Nc3sc4c(c3C#N)CCCC4)nn2)cc1` yielded an inhibition in data set [1] of 10.8%.
On the same count and under the same terms, the result for `N#Cc1c(NC(=O)CSc2ccc(-c3ccc(F)cc3)nn2)sc2c1CCC2` reads 10.8%; that for `N#Cc1c(NC(=O)CSc2ccc(-c3ccccc3)nn2)sc2c1CCCC2`, 10.8%.
As to `COc1cccc2c1C(=O)c1c(O)c3c(c(O)c1C2=O)C[C@@](O)(C(=O)CO)C[C@@H]3O[C@H]1C[C@H](N)[C@H](O)[C@H](C)O1` [DOXORUBICIN], the Activity in data set [10] is 60.4%; in data set [11], 39.16%; in data set [12] it was 23.43%; in data set [13], 35.71%; in [14], 48.4%; in data set [15], 7.34 g/dL. For the same molecule, the Activity in [16] is given as 4.94 10^6/ml; in [25], 54.14%; in data set [17] it was 36.29%; in data set [18], 8.42%; in [19] it was above 90%; in [20], “Non-Toxic”. The Activity result in data set [21], in [22], in [23] and in data set [24] was “Toxic” throughout.
On to `COc1ccc(-c2ccc(SCC(=O)Nc3sc4c(c3C#N)CCC4)nn2)cc1`, for which the inhibition in data set [1] turned out to be 10.8%.
`N#Cc1c(NC(=O)CSc2ccc(-c3ccc(Br)cc3)nn2)sc2c1CCC2` registered an inhibition in data set [1] of 10.8%.
The molecule `Cc1ccc(-c2ccc(SCC(=O)Nc3sc4c(c3C#N)CCCC4)nn2)cc1` displayed an inhibition in data set [1] of 49.1%. In addition, the results for the concentration for half-maximal inhibition (IC50) in [2] and in data set [3] were 34.5 µg/mL (≈ 82.1 µM) and 63.8 µg/mL (≈ 152 µM), respectively.
In data set [1], `N#Cc1c(NC(=O)CSc2ccc(-c3ccc(Cl)cc3)nn2)sc2c1CCCC2` gave an inhibition of 10.8%.
`N#Cc1c(NC(=O)CSc2ccc(-c3ccc(Cl)cc3)nn2)sc2c1CCC2` came in with an inhibition in [1] of 10.8%.
